Assay results taken from patent publication US20200323833A1, “HYDROPHOBIC ACID ADDITION SALTS” (Theracaine LLC, priority 2017, published 2020).
Counter-ions that a name gives are not always drawn.

Key:
[1] = system: female CD (Sprague Dawley) rats; details: rat, in vivo
Description: Clinical observations were performed daily.
(§1) Ten (10) female, jugular vein catheterized (JVC) CD rats initially were assigned to two dose groups consisting of five animals per group.
(§2) Each test article was provided as a powder in an individual vial.

[2] = system: female Sprague-Dawley rats; details: rat, in vivo, sc
Description: (§3) Clinical observations were performed daily. […] Other characteristics observed included appearance of skin and fur, appearance of eyes and mucous membranes, urine and fecal output, and changes in locomotor behavior. The times of observation were approximately the same each day, and the date of each observation was recorded.
The vehicle was a hyaluronic acid vehicle. The animals received a single subcutaneous dose of the test article or vehicle delivered to the dorsal area of the animals.
In addition, dose sites were exposed for gross evaluation of residual test articles and local response to the injected materials.

[3] = system: female Sprague Dawley (CD) rats; details: rat, in vivo, sc
Description: as §3
Animals were euthanized at the end of the study via carbon dioxide inhalation (CO2) followed by thoracotomy. Gross necropsy of the dose sites were performed and they were collected for histopathology. Photographs were taken for any observation of tissue or reaction to treatment. Carcasses were discarded without further examination.
Twenty (20) female, jugular vein catheterized (JVC) Sprague Dawley (CD) rats initially were assigned to four dose groups consisting of eight (Test Articles A and B) or two (Test Articles B and C) animals per group. The animals received a single subcutaneous dose of the test article delivered to the dorsal subcutaneum of the animals via a dorsal skin incision.
Test articles were provided as a powder in individual vials (Test Articles A and B), or as a solution (Test Articles C and D). On the day of testing, each animal's dose was individually calculated, weighed or measured, and recorded. […]

[4] = Pharmacokinetics of dry powder administered subcutaneously via dorsal incision (Example 5); assay type: in vivo, Sprague Dawley rats; details: dry powder 230, via dorsal incision, bupivacaine salt 149 vs lidocaine salt 226 mg/kg
Description: Terminal collections were performed via vena cava.
The test articles were drug compositions designated as Test Articles A and B, which were administered as a single subcutaneous dose via dorsal incision to female CD (Sprague Dawley) rats.
as §1, §2

Row | SMILES | tolerability of single subcutaneous dose administered through a dorsal incision [1] | clinical observations [2] | vascularization surrounding the incision sites on the subcutaneous skin layers [3] | Cmax compared to the lidocaine particles [4] | duration of release compared to the lidocaine particles ([4]; listed as bupivacaine particles) | duration of release compared to the lidocaine particles ([4]; listed as bupivaciane particles)
1 | CCN(CC)CC(=O)Nc1c(C)cccc1C.O=S(=O)(O)C(F)(F)C(F)(F)C(F)(F)C(F)(F)C(F)(F)C(F)(F)C(F)(F)C(F)(F)F [Test Article B] | tolerated | slightly dehydrated and hypoactive | slight to moderate |  |  | 
2 | CCCCN1CCCCC1C(=O)Nc1c(C)cccc1C (stereo not drawn) [Test Article B, Bupivacaine tridecafluorohexane-sulfonate salt 230] |  |  |  | lower | longer | significantly longer
